In ChEMBL document CHEMBL1144628, “6-Hydrazinopurine 2'-methyl ribonucleosides and their 5'-monophosphate prodrugs as potent hepatitis C virus inhibitors” (Bioorg Med Chem Lett, 2007):

What was measured:
Hepatitis C virus = assay: Antiviral activity against HCV by replicon assay; type: functional, organism-based, Hepacivirus hominis
Plasma = assay: Stability in human plasma; type: ADME, cell-free
[1] = Stability in human simulated gastric fluid; type: ADME, Stomach; details: simulated gi fluid
[2] = Stability in human simulated intestinal fluid at 1 mg/mL after 30 mins; type: ADME; details: read-out: Stability
[3] = Stability in human simulated intestinal fluid at 1 mg/mL after 60 mins; type: ADME; details: read-out: Stability
[4] = Stability in human simulated intestinal fluid at 1 mg/mL after 2 hrs; type: ADME; details: simulated gi fluid

| SMILES | EC50 (Hepatitis C virus) [nM] | Stability (Plasma) | Stability [1] | remaining at 0.5 h, 1 mg/mL [2] [%] | remaining at 1 h, 1 mg/mL [3] [%] | Stability [4] |
| --- | --- | --- | --- | --- | --- | --- |
| CC(NP(=O)(OC[C@H]1O[C@@H](n2cnc3c(N(C)NS(C)(=O)=O)nc(N)nc32)[C@](C)(O)[C@@H]1O)Oc1ccccc1)C(=O)OCc1ccccc1 (stereo not given in full) | 2200 | Stable | Stable | 0 | 0 | – |
| CN(NS(C)(=O)=O)c1nc(N)nc2c1ncn2[C@@H]1O[C@H](CO)[C@@H](O)[C@@]1(C)O | 92000 | – | – | – | – | – |
| CN(NS(C)(=O)=O)c1ncnc2c1ncn2[C@@H]1O[C@H](CO)[C@@H](O)[C@@]1(C)O | 300000 | – | – | – | – | – |
| COC(=O)C(C)NP(=O)(OC[C@H]1O[C@@H](n2cnc3c(N(C)NS(C)(=O)=O)ncnc32)[C@](C)(O)[C@@H]1O)Oc1ccc(Cl)cc1 (stereo not given in full) | 2600 | – | – | – | – | – |
| COC(=O)CNP(=O)(OC[C@H]1O[C@@H](n2cnc3c(N(C)NS(C)(=O)=O)nc(N)nc32)[C@](C)(O)[C@@H]1O)Oc1ccccc1 (stereo not given in full) | 22000 | Stable | Stable | 0 | 0 | – |
| COC(=O)CNP(=O)(OC[C@H]1O[C@@H](n2cnc3c(N(C)NS(C)(=O)=O)nc(N)nc32)[C@](C)(O)[C@@H]1O)Oc1ccc(Cl)cc1 (stereo not given in full) | 8900 | Stable | Stable | 0 | 0 | – |
| CC(NP(=O)(OC[C@H]1O[C@@H](n2cnc3c(N(C)NS(C)(=O)=O)ncnc32)[C@](C)(O)[C@@H]1O)Oc1ccccc1)C(=O)OCc1ccccc1 (stereo not given in full) | 2900 | Stable | Stable | 0 | 0 | – |
| CC(C)OC(=O)C(C)NP(=O)(OC[C@H]1O[C@@H](n2cnc3c(N(C)NS(C)(=O)=O)ncnc32)[C@](C)(O)[C@@H]1O)Oc1ccc(Cl)cc1 (stereo not given in full) | 2500 | Stable | Stable | 67 | 48 | – |
| COC(=O)CNP(=O)(OC[C@H]1O[C@@H](n2cnc3c(N(C)NS(C)(=O)=O)ncnc32)[C@](C)(O)[C@@H]1O)Oc1ccccc1 (stereo not given in full) | 220000 | Stable | Stable | 0 | 0 | – |
| COC(=O)C(C)NP(=O)(OC[C@H]1O[C@@H](n2cnc3c(N(C)NS(C)(=O)=O)ncnc32)[C@](C)(O)[C@@H]1O)Oc1ccccc1 (stereo not given in full) | 26000 | – | – | – | – | – |
| COC(=O)CNP(=O)(OC[C@H]1O[C@@H](n2cnc3c(N(C)NS(C)(=O)=O)ncnc32)[C@](C)(O)[C@@H]1O)Oc1ccc(Cl)cc1 (stereo not given in full) | 39000 | Stable | Stable | 0 | 0 | – |

Stronger by EC50 (Hepatitis C virus), values ahead:

| EC50 (Hepatitis C virus) [nM] | Stability (Plasma) | Stability [1] | remaining at 0.5 h, 1 mg/mL [2] [%] | remaining at 1 h, 1 mg/mL [3] [%] | Stability [4] | SMILES |
| --- | --- | --- | --- | --- | --- | --- |
| 1200 | – | – | – | – | – | COC(=O)C(C)NP(=O)(OC[C@H]1O[C@@H](n2cnc3c(N(C)NS(C)(=O)=O)nc(N)nc32)[C@](C)(O)[C@@H]1O)Oc1ccccc1 (stereo not given in full) |
| 800 | – | – | – | – | – | COC(=O)C(C)NP(=O)(OC[C@H]1O[C@@H](n2cnc3c(N(C)NS(C)(=O)=O)nc(N)nc32)[C@](C)(O)[C@@H]1O)Oc1ccc(Cl)cc1 (stereo not given in full) |
| 60 | – | – | – | – | – | CN(NS(C)(=O)=O)c1ncnc2c1ncn2[C@@H]1O[C@H](COP(=O)(OCCSC(=O)C(C)(C)C)OCCSC(=O)C(C)(C)C)[C@@H](O)[C@@]1(C)O |
| 110 | Stable | Stable | 0 | 0 | – | CC(NP(=O)(OC[C@H]1O[C@@H](n2cnc3c(N(C)NS(C)(=O)=O)nc(N)nc32)[C@](C)(O)[C@@H]1O)Oc1ccc(Cl)cc1)C(=O)OCc1ccccc1 (stereo not given in full) |
| 680 | Stable | Stable | 0 | 0 | – | CC(NP(=O)(OC[C@H]1O[C@@H](n2cnc3c(N(C)NS(C)(=O)=O)ncnc32)[C@](C)(O)[C@@H]1O)Oc1ccc(Cl)cc1)C(=O)OCc1ccccc1 (stereo not given in full) |
| 270 | Stable | Stable | 61 | 37 | – | CC(C)OC(=O)C(C)NP(=O)(OC[C@H]1O[C@@H](n2cnc3c(N(C)NS(C)(=O)=O)nc(N)nc32)[C@](C)(O)[C@@H]1O)Oc1ccc(Cl)cc1 (stereo not given in full) |
| 1400 | Stable | Stable | 100 | 100 | Stable | COC(=O)C(C)(C)NP(=O)(OC[C@H]1O[C@@H](n2cnc3c(N(C)NS(C)(=O)=O)ncnc32)[C@](C)(O)[C@@H]1O)Oc1ccc(Cl)cc1 (stereo not given in full) |
| 260 | Stable | Stable | 100 | 100 | Stable | COC(=O)C(C)(C)NP(=O)(OC[C@H]1O[C@@H](n2cnc3c(N(C)NS(C)(=O)=O)nc(N)nc32)[C@](C)(O)[C@@H]1O)Oc1ccc(Cl)cc1 (stereo not given in full) |
| 24 | – | – | – | – | – | CN(NS(C)(=O)=O)c1nc(N)nc2c1ncn2[C@@H]1O[C@H](COP(=O)(OCCSC(=O)C(C)(C)C)OCCSC(=O)C(C)(C)C)[C@@H](O)[C@@]1(C)O |
